Measurements from US20220339135A1, “COMPOSITIONS AND METHODS FOR MODULATING AN INFLAMMATORY RESPONSE” (Enzychem Lifesciences Corporation, priority 2019, published 2022).
“Also recorded” adds a separate entry of the source.

How the values were obtained:
[1] = test system: LPS-induced acute lung injury; experiment: LPS-induced acute lung injury (ALI) in mice; format: in vivo; conditions: for number of neutrophils in BALF: LPS-treated mice, co-treatment
[2] = test system: PAK in THP-1 cells; experiment: In vitro phagocytosis of PAK, THP-1 cells; format: cell-based, human; conditions: 1 hour after infection
Method: For CFU counting-based phagocytosis and bacterial killing assay, PAK was cultured at 37° C. overnight with continuous shaking and was resuspended in PBS. The BMDMs or THP-1 cells were incubated with PAK (MOI, 50) for different time intervals at 37° C. The cells were further cultured in the medium containing 10 μg/ml gentamycin for 30 minutes and then were lysed by 0.5% SDS. The diluted aliquots were spread on LB agar plates, and CFU was counted after incubation of the plates overnight at 37° C.

[3] = test system: Pseudomonas aeruginosa (PAK) in BALF; experiment: PAK infection of mice, CFU determination in BALF; format: in vivo; conditions: PAK-induced pneumonia mice, BALF 2 hours after infection
Method: Pseudomonas aeruginosa (PAK) was grown overnight in LB broth at 37° C. with agitation, and then harvested by centrifugation at 13,000×g for 2 min. The pellet was diluted to yield 1×10^5 colony-forming unit (CFU) per 20 μL of phosphate-buffered saline (PBS) as determined by the optical density at 600 nm. The diluted bacteria were administered to BALB/c mice by intranasal injections. Bronchoalveolar lavage fluid (BALF) samples were then collected 2 hours after infection and serially diluted 1:1,000-1:10,000 with PBS and incubated overnight at 37° C. on LB agar plates. The number of viable bacteria in BALF samples were determined by counting the numbers of colonies formed on the plates.

[4] = test system: STZ-induced hepatic steatosis; experiment: STZ-induced mice model (lipid uptake, hepatic steatosis); format: in vivo; conditions: for body weight versus STZ treated mice / hepatic steatosis / liver damage (histology): co-treated 3 days
Text: Eight-week-old Balb/c male mice were purchased from Koatech Co. (Pyeongtaek, Republic of Korea) and maintained in for 7 days in order to adapt to the environment. The experimental protocol was approved by the Animal Care and Use Committee of Korea Research Institute of Bioscience and Biotechnology Institution (KRIBB-AEC-17146) and performed in accordance with the National Institutes of Health Guidelines for the care and use of laboratory animals and with the Korean national laws for animal welfare. The mice were randomized initially into two experimental groups as follows: Non-treated group as a control; STZ treated group. STZ treated groups received an intraperitoneal injection of 200 mg/kg BW STZ, which was dissolved in citrate buffer (pH 4.5), while the animals belonging to the control group received vehicle injection. The next day following STZ administration, the induction of diabetes in all STZ-treated mice was confirmed the glucose level in blood by a glucometer (ACCU-CHEK, Roche diagnostics Inc., Seoul, Korea). All mice with blood glucose levels higher than 200 mg/dL in fasting state were considered acute diabetes. After the confirmation of the induction of diabetes, the mice of the experimental group were further randomized into three groups: STZ alone treated group; high dose of PLAG treated group; a low dose of PLAG treated group. PLAG was injected into mice for 3 days. Control and STZ alone treated groups were administrated orally to mice with the same PBS for 3 days. Following sacrifice, LPL activity was measured in plasma using a quantitative LPL activity assay kit (Cell Biolabs, Inc, San Diego, Calif.). Diluted samples and standards were loaded to the fluorescence microtiter plate, and LPL fluorometric substrate was added. After 30 minutes, the reaction stopped by stopping the solution. After 15 minutes, the sample fluorescence measured by a fluorescence microplate reader. The relative amounts of Apolipoprotein B48 (ApoB48) of portal vein plasma were evaluated by western blot analysis. […] The protein extracts were immunoblotted with the ApoB48 antibody (Abcam, MA, USA). Eight-week-old Balb/c male mice were purchased from Koatech Co. (Pyeongtaek, Republic of Korea) and maintained in for 7 days in order to adapt to the environment. The experimental protocol was approved by the Animal Care and Use Committee of Korea Research Institute of Bioscience and Biotechnology Institution (KRIBB-AEC-17146) and performed in accordance with the National Institutes of Health Guidelines for the care and use of laboratory animals and with the Korean national laws for animal welfare. The mice were randomized initially into 2 experimental groups as follows: Non-treated group as a control; STZ treated group. STZ treated groups received an intraperitoneal injection of 200 mg/kg BW STZ, which was dissolved in citrate buffer (pH 4.5), while the animals belonging to the control group received vehicle injection. The next day following STZ administration, the induction of diabetes in all STZ-treated mice was confirmed the glucose level in blood by a glucometer (ACCU-CHEK, Roche diagnostics Inc., Seoul, Korea). All mice with blood glucose levels higher than 200 mg/dL in fasting state were considered acute diabetes. After the confirmation of the induction of diabetes, the mice of the experimental group were further randomized into three groups: STZ alone treated group; high dose of PLAG treated group; a low dose of PLAG treated group. One day after STZ injection, mice were orally injected with PLAG for 3 days (FIG. 31A). The dosage and preparation of PLAG were determined according to previous reports. Control and STZ alone treated groups were administrated orally with the same PBS for 3 days. The experiments were carried out according to the methods mentioned above. […] Total RNA was isolated from the muscle of individual mice using TRIzol reagent (Favorgen Biotech, Taiwan). […]

SMILES	inflammatory cell infiltration into the alveolar space (H&E) ([1]; 16 hours after LPS, PLAG 250 mg/kg oral)	mRNA expression of MIP-2, S100A8, S100A9 increased by LPS ([1]; BALF cells, 16 hours)	Evans blue-stained albumin in lungs ([1]; LPS 25 mg/kg intranasal, PLAG 250 mg/kg oral)	number of neutrophils in BALF [1]	MPO activity of isolated lung tissue ([1]; vs LPS alone, PLAG 250 mg/kg oral)	neutrophil migration, PLAG treatment alone ([1]; without LPS)	phagocytosis of PAK by THP-1 cells [2]	bacterial clearance of PAK in BALF [3]	STZ-induced empty fat vacuoles in liver (H&E) ([4]; 250 mg/kg vs 50 mg/kg)	plasma LPL activity ([4]; STZ 200 mg/kg, PLAG 3 days)	muscle TG content ([4]; STZ/PLAG treated group)	body weight versus STZ treated mice [4]	hepatic steatosis / liver damage (histology) [4]	ApoB48 level in portal vein blood ([4]; dose-dependent)
CCCCC/C=C\C/C=C\CCCCCCCC(=O)OC(COC(C)=O)COC(=O)CCCCCCCCCCCCCCC (racemic) [PLAG, 1-palmitoyl-2-linoleoyl-3-acetylglycerol]	considerably reduced	significantly attenuated	significantly decreased	more rapidly return to homeostasis; also recorded: dramatically reduced	significantly decreased	no effect	advanced phagocytosis	showed the bacterial clearance activity; also recorded: effectively eliminated	decreased STZ-induced empty fat vacuoles more effectively than 50 mg/kg	recovered	recovered	less body weight loss	attenuated	markedly reduced
CCCCC/C=C\C/C=C\CCCCCCCC(=O)OC(CO)COC(=O)CCCCCCCCCCCCCCC (stereo not shown) [PLH, palmitic linoleic hydroxyl glycerol, reference compound]	–	–	–	no effect	–	–	little effect	didn't; also recorded: did not	–	–	–	no difference	not altered	–
